Reference: ChEMBL document CHEMBL2203217, “Prohormone-substrate peptide sequence recognition by peptidylglycine α-amidating monooxygenase and its reflection in increased glycolate inhibitor potency” (Bioorg Med Chem Lett, 2012)

How the values were obtained:
[1] = molecular target: T1, Peptidyl-glycine alpha-amidating monooxygenase (Homo sapiens, UniProt P19021); test: Competitive inhibition of PAM in human DMS53 cells using as(R)-Tyr-(S)-Val-Gly as substrate after 2 hrs by HPLC analysis; assay type: cell-based, DMS-53
T1 sequence (P19021 whole entry): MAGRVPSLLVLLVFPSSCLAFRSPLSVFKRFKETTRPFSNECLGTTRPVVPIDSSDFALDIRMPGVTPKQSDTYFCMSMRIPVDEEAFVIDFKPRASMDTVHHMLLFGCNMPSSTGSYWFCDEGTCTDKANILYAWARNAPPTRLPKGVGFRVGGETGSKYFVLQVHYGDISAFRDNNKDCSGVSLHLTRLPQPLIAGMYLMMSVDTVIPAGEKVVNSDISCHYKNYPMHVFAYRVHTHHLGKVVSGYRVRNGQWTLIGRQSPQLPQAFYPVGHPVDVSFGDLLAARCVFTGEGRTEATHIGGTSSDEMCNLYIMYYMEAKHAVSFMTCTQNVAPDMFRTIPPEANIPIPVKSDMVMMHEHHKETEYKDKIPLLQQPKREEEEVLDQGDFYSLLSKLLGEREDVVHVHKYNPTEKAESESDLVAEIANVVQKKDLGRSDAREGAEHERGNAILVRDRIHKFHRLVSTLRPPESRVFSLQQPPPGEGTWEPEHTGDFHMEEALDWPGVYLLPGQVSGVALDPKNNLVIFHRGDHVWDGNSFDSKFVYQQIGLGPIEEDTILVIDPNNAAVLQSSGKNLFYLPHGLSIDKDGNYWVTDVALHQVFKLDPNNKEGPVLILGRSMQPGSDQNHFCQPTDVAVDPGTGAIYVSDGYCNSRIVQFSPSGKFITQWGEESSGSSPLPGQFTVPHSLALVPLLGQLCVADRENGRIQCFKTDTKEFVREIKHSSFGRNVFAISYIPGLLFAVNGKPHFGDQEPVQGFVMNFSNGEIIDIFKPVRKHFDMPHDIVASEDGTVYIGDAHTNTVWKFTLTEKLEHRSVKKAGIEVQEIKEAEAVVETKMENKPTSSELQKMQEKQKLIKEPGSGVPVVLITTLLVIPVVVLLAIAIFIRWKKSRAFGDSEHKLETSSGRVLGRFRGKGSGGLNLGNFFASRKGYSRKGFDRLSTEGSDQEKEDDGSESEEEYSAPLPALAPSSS

[2] = molecular target: T1, Peptidyl-glycine alpha-amidating monooxygenase; test: Competitive inhibition of secreted PAM in human DMS53 cell culture medium using as(R)-Tyr-(S)-Val-Gly as substrate after 2 hrs by HPLC analysis; design: species or system DMS-53

Row | SMILES | IC50 [1] [µM] | IC50 [2] [µM]
1 | C[C@H](NC(=O)CN)C(=O)N[C@@H](Cc1ccccc1)C(=O)OCC(=O)O | 560 | 160
2 | CC(=O)NCC(=O)OCC(=O)O | 210 | 1800
